Tests used:
[1] = system: Myzus persicae (Green Peach Aphid); assay: whole plant or invertebrate; format: in vivo; conditions: 144 h, test rate of 24 ppm, systemic, roots of infested pea seedlings in test solution, 6 days
[2] = system: Diabrotica Balteata (Corn Root Worm); assay: Diabrotica balteata (Corn Root Worm); conditions: in Zea mays, 96 h, read-out: effect in at least one of the two categories (mortality or growth inhibition)
[3] = system: Myzus persicae (Green Peach Aphid); assay: whole plant or invertebrate; conditions: foliar, 144 h
[4] = system: Euschistus heros (Neotropical Brown Stink Bug); assay: whole plant or invertebrate; format: in vivo; conditions: 120 h, application rate of 200 ppm, N2 nymphs on sprayed soybean leaves, 5 days after infestation, read-out: effect in at least one of the two categories (mortality or growth inhibition)
[5] = system: Plutella xylostella (Diamond Back Moth); assay: whole plant or invertebrate; format: in vivo; conditions: 120 h, application rate of 200 ppm, L2 larvae on treated artificial diet, 5 days after infestation, read-out: effect in at least one of the two categories (mortality or growth inhibition)

CCS(=O)(=O)c1cc(OC(C(=O)N(C)C)S(C)(=O)=O)cnc1-c1nc2cc(C(F)(F)F)ncc2n1C (stereo not drawn) [Compound P38, 2-[[5-ethylsulfonyl-6-[3-methyl-6-(trifluoromethyl)imidazo[4,5-c]pyridin-2-yl]-3-pyridyl]oxy]-N,N-dimethyl-2-methylsulfonyl-acetamide]
mortality at 24 ppm [1]: ≥ 80%

CCS(=O)(=O)c1cc(OCc2ccccc2)cnc1-c1nc2cc(C(F)(F)F)ncc2n1C [Compound P94, 2-(5-benzyloxy-3-ethylsulfonyl-2-pyridyl)-3-methyl-6-(trifluoromethyl)imidazo[4,5-c]pyridine]
mortality at 200 ppm [2]: ≥ 80%

CCS(=O)(=O)c1cc(OC(SC)C(=O)NC)cnc1-c1nc2cc(C(F)(F)F)ncc2n1C (stereo not drawn) [Compound P37, 2-[[5-ethylsulfonyl-6-[3-methyl-6-(trifluoromethyl)imidazo[4,5-c]pyridin-2-yl]-3-pyridyl]oxy]-N-methyl-2-methylsulfanyl-acetamide]
mortality at 200 ppm [3]: ≥ 80% | percent effect (mortality or growth inhibition) at 200 ppm [4]: ≥ 80%

CCS(=O)(=O)c1cc(OCS(C)(=N)=O)cnc1-c1nc2cc(C(F)(F)F)ncc2n1C (stereo not drawn) [Compound P80, [5-ethylsulfonyl-6-[3-methyl-6-(trifluoromethyl)imidazo[4,5-c]pyridin-2-yl]-3-pyridyl]oxymethyl-imino-methyl-oxo-$|^6-sulfane]
mortality at 24 ppm [1]: ≥ 80% | mortality at 200 ppm [3]: ≥ 80% | percent effect (mortality or growth inhibition) at 200 ppm [4]: ≥ 80%

CCSc1cc(OCC(C)(C)C)cnc1-c1nc2cc(C(F)(F)F)ncc2n1C [Compound P25, 2-[5-(2,2-dimethylpropoxy)-3-ethylsulfanyl-2-pyridyl]-3-methyl-6-(trifluoromethyl)imidazo[4,5-c]pyridine]
mortality at 200 ppm [3]: ≥ 80% | percent effect (mortality or growth inhibition) at 200 ppm [5]: ≥ 80%

CCSc1cc(OC(C#N)(CC)CC)cnc1-c1nc2cc(C(F)(F)F)ncc2n1C [Compound P43, 2-ethyl-2-[[5-ethylsulfanyl-6-[3-methyl-6-(trifluoromethyl)imidazo[4,5-c]pyridin-2-yl]-3-pyridyl]oxy]butanenitrile]
percent effect (mortality or growth inhibition) at 200 ppm [4]: ≥ 80%

CCS(=O)(=O)c1cc(OCc2cc(C3CC3)no2)cnc1-c1nc2cc(C(F)(F)F)ncc2n1C [Compound P83, 3-cyclopropyl-5-[[5-ethylsulfonyl-6-[3-methyl-6-(trifluoromethyl)imidazo[4,5-c]pyridin-2-yl]-3-pyridyl]oxymethyl]isoxazole]
mortality at 200 ppm [2]: ≥ 80% | percent effect (mortality or growth inhibition) at 200 ppm [5]: ≥ 80% | percent effect (mortality or growth inhibition) at 200 ppm [4]: ≥ 80%

CCSc1cc(OCC2CC2)cnc1-c1nc2cc(C(F)(F)F)ncc2n1C [Compound P23, 2-[5-(cyclopropylmethoxy)-3-ethylsulfanyl-2-pyridyl]-3-methyl-6-(trifluoromethyl)imidazo[4,5-c]pyridine]
mortality at 200 ppm [3]: ≥ 80% | mortality at 200 ppm [2]: ≥ 80% | percent effect (mortality or growth inhibition) at 200 ppm [5]: ≥ 80%

CCSc1cc(OC2COC2)cnc1-c1nc2cc(C(F)(F)F)ncc2n1C [Compound P2, 2-[3-ethylsulfanyl-5-(oxetan-3-yloxy)-2-pyridyl]-3-methyl-6-(trifluoromethyl)imidazo[4,5-c]pyridine]
mortality at 200 ppm [2]: ≥ 80% | percent effect (mortality or growth inhibition) at 200 ppm [4]: ≥ 80%

CCS(=O)(=O)c1cc(OS(=O)(=O)C(F)F)cnc1-c1nc2cc(C(F)(F)F)ncc2n1C [Compound P91, [5-ethylsulfonyl-6-[3-methyl-6-(trifluoromethyl)imidazo[4,5-c]pyridin-2-yl]-3-pyridyl] difluoromethanesulfonate]
mortality at 200 ppm [2]: ≥ 80%

CCS(=O)(=O)c1cc(OC(C)(C)C(=O)N(C)C)cnc1-c1nc2cc(C(F)(F)F)ncc2n1C [Compound P59, 2-[[5-ethylsulfonyl-6-[3-methyl-6-(trifluoromethyl)imidazo[4,5-c]pyridin-2-yl]-3-pyridyl]oxy]-N,N,2-trimethyl-propanamide]
mortality at 24 ppm [1]: ≥ 80%

CCS(=O)(=O)c1cc(OC(F)(F)CBr)cnc1-c1nc2cc(C(F)(F)F)ncc2n1C [Compound P109, 2-[5-(2-bromo-1,1-difluoro-ethoxy)-3-ethylsulfonyl-2-pyridyl]-3-methyl-6-(trifluoromethyl)imidazo[4,5-c]pyridine]
percent effect (mortality or growth inhibition) at 200 ppm [5]: ≥ 80%

C=CCOc1cnc(-c2nc3cc(C(F)(F)F)ncc3n2C)c(SCC)c1 [Compound P95, 2-(5-allyloxy-3-ethylsulfanyl-2-pyridyl)-3-methyl-6-(trifluoromethyl)imidazo[4,5-c]pyridine]
mortality at 200 ppm [2]: ≥ 80%

CCSc1cc(OC(C)(C)C(N)=O)cnc1-c1nc2cc(C(F)(F)F)ncc2n1C [Compound P77, 2-[[5-ethylsulfanyl-6-[3-methyl-6-(trifluoromethyl)imidazo[4,5-c]pyridin-2-yl]-3-pyridyl]oxy]-2-methyl-propanamide]
percent effect (mortality or growth inhibition) at 200 ppm [4]: ≥ 80%

C#CCOc1cnc(-c2nc3cc(C(F)(F)F)ncc3n2C)c(SCC)c1 [Compound P17, 2-(3-ethylsulfanyl-5-prop-2-ynoxy-2-pyridyl)-3-methyl-6-(trifluoromethyl)imidazo[4,5-c]pyridine]
mortality at 200 ppm [2]: ≥ 80%

CCS(=O)(=O)c1cc(OC/C(C)=N/OC)cnc1-c1nc2cc(C(F)(F)F)ncc2n1C [Compound P64, 1-[[5-ethylsulfonyl-6-[3-methyl-6-(trifluoromethyl)imidazo[4,5-c]pyridin-2-yl]-3-pyridyl]oxy]-N-methoxy-propan-2-imine]
mortality at 200 ppm [3]: ≥ 80% | percent effect (mortality or growth inhibition) at 200 ppm [5]: ≥ 80% | percent effect (mortality or growth inhibition) at 200 ppm [4]: ≥ 80%

CCS(=O)(=O)c1cc(OCC(=O)N(C)C)cnc1-c1nc2cc(C(F)(F)F)ncc2n1C [Compound P51, 2-[[5-ethylsulfonyl-6-[3-methyl-6-(trifluoromethyl)imidazo[4,5-c]pyridin-2-yl]-3-pyridyl]oxy]-N,N-dimethyl-acetamide]
mortality at 24 ppm [1]: ≥ 80% | percent effect (mortality or growth inhibition) at 200 ppm [4]: ≥ 80%

CCS(=O)(=O)c1cc(OC(C)(C)C(=O)NC)cnc1-c1nc2cc(C(F)(F)F)ncc2n1C [Compound P55, 2-[[5-ethylsulfonyl-6-[3-methyl-6-(trifluoromethyl)imidazo[4,5-c]pyridin-2-yl]-3-pyridyl]oxy]-N,2-dimethyl-propanamide]
mortality at 24 ppm [1]: ≥ 80% | mortality at 200 ppm [3]: ≥ 80%

CCSc1cc(OC2(C)COC2)cnc1-c1nc2cc(C(F)(F)F)ncc2n1C [Compound P14, 2-[3-ethylsulfanyl-5-(3-methyloxetan-3-yl)oxy-2-pyridyl]-3-methyl-6-(trifluoromethyl)imidazo[4,5-c]pyridine]
mortality at 200 ppm [2]: ≥ 80% | percent effect (mortality or growth inhibition) at 200 ppm [5]: ≥ 80%

CCS(=O)(=O)c1cc(OC(SC)C(=O)N(C)C)cnc1-c1nc2cc(C(F)(F)F)ncc2n1C (stereo not drawn) [Compound P36, 2-[[5-ethylsulfonyl-6-[3-methyl-6-(trifluoromethyl)imidazo[4,5-c]pyridin-2-yl]-3-pyridyl]oxy]-N,N-dimethyl-2-methylsulfanyl-acetamide]
percent effect (mortality or growth inhibition) at 200 ppm [4]: ≥ 80%

CCS(=O)(=O)c1cc(OS(C)(=O)=O)cnc1-c1nc2cc(C(F)(F)F)ncc2n1C [Compound P93, [5-ethylsulfonyl-6-[3-methyl-6-(trifluoromethyl)imidazo[4,5-c]pyridin-2-yl]-3-pyridyl] methanesulfonate]
mortality at 200 ppm [3]: ≥ 80% | percent effect (mortality or growth inhibition) at 200 ppm [5]: ≥ 80%

From US20200216441A1, “PESTICIDALLY ACTIVE HETEROCYCLIC DERIVATIVES WITH SULFUR CONTAINING SUBSTITUENTS” (SYNGENTA PARTICIPATIONS AG, priority 2017, published 2020)
